Source: patent US20100286284A1, “5-[1'-(DECAHYDRO-7-HYDROXY-1,1,3A,7-TETRAMETHYL-1H-CYCLOPROPA[A]NAPHTHALEN-4-YL)-3'-METHYLBUTYL]-2,4,6-TRIHYDROXY-1,3-BENZENEDICARBOXALDEHYDE AS MEDICAMENTS” (Pierre Fabre Medicament, priority 2008, published 2010)

Tests used:
Format in all cases: biochemical
Serotonin reuptake = experiment: Reuptake of serotonin (5-HT), [3H]-serotonin uptake in rat brain synapses; conditions: in vitro, synapses from rats' brains, 15 min at 37° C.
Protocol: (§1) The uptake tests were carried out in vitro on rat synapses.
The basal activity is determined by incubating the same mixture for 15 min at 37° C. in the presence of 10 μM imipramine to block the reuptake.
(§2) Following incubation, the samples are rapidly filtered in vacuo through glass fibre filters (GB/B, Packard) and rinsed twice with ice-cold incubation buffer to eliminate free [^3H]-serotonin. The filters are dried and the radioactivity retained is measured by a scintillation counter (Topcount, Packard) using a scintillation cocktail (Microscint O, Packard).
(§3) The results are expressed as a percentage inhibition of the reuptake of the neurotransmitter evaluated.

Noradrenaline reuptake = experiment: Reuptake of noradrenaline (NE), [3H]-NE uptake in synapses of rat hypothalamus; conditions: in vitro, 20 min at 37° C.
Protocol: as §1
The basal activity is determined by incubating the same mixture for 20 min at 37° C. in the presence of 10 μM of protriptyline to block the reuptake.
as §2, with “[^3H]-NE.” for “[^3H]-serotonin.”
as §3

Dopamine reuptake = experiment: Reuptake of dopamine (DA), [3H]-DA uptake in synapses of rat striatum; conditions: in vitro, 15 min at 37° C.
Protocol: as §1
as §2, with “[^3H]-dopamine.” for “[^3H]-serotonin.”
as §3

Row | Compound | IC50 Serotonin reuptake (Serotonin reuptake) | IC50 Noradrenaline reuptake (Noradrenaline reuptake) | IC50 Dopamine reuptake (Dopamine reuptake)
1 | Hyperforin | 0.89 μg/ml of solution | 0.79 μg/ml of solution | 0.23 μg/ml of solution
2 | CC(C)C[C@@H](c1c(O)c(C=O)c(O)c(C=O)c1O)[C@@H]1CC[C@@](C)(O)[C@@H]2[C@@H]3C(CC[C@]21C)C3(C)C (stereo partly drawn) [Macrocarpal L] | 1.8 μg/ml of solution | 3.1 μg/ml of solution | 1.0 μg/ml of solution
